According to US9598407B2, “Antibacterial piperidinyl substituted 3,4-dihydro-1H-[1,8]naphthyridinones” (JANSSEN SCIENCES IRELAND UC, priority 2011, dated 2017):

Columns and labels:
[1] = target: S. aureus ATCC 29213 FabI (Staphylococcus aureus (strain MRSA252), UniProt Q6GI75); experiment: Staphylococcus aureus FabI enzyme inhibition assay; type: biochemical; details: 30 minutes at room temperature, pH 6.5
Procedure: D.1 FabI Enzyme Inhibition: Staphylococcus aureus FabI Enzyme Inhibition Assay
FabI enzyme inhibition assays were carried out in half-area, 384-well microtitre plates. Compounds were evaluated in 40-μl assay mixtures containing 100 mM NaADA, pH 6.5 (ADA=N-[2-acetamido]-2iminodiacetic acid), 250 μM crotonoyl-CoA, 625 μM NADH and 50 μg/ml S. aureus ATCC 29213 FabI Inhibitors were typically varied over the range of 50 to 0.39 μM. The reaction mixtures were incubated for 30 minutes at room temperature and the reaction was stopped by adding 200 mM Tris buffer (pH 9.0) to create a pH-shift. The consumption of NADH was monitored by measuring the change in absorbance at […]. By comparing sample readings to those of negative (absence of compound) and positive (absence of enzyme) controls, the percent inhibition of enzymatic activity of the compounds was determined A best-fit curve is fitted by a minimum of squares method. From this an IC50-value (expressed in μg/ml), resulting in 50% inhibition of enzymatic activity, was obtained.

Human HelaM cells = experiment: Cytotoxicity MTT assay (TOX HELAM 222.125); type: cell-based; details: 72 hours
Procedure: Cytotoxicity of the compounds was evaluated using the MTT assay. Human HelaM cells grown in 96-well plates were exposed to serial dilutions of the tested compounds (final volume of 0.2 ml) and incubated for 72 hours at 37° C. and 5% CO2 Inhibitors are typically varied over the range of 25 to 0.8 μM. The final DMSO concentration in the assay is 0.5%. MTT (3-(4,5-Dimethylthiazol-2-yl)-2,5-diphenyltetrazolium bromide, a tetrazole) was added and reduced to purple formazan only in living cells. Solubilization of the formazan crystals was achieved by adding 100 μl 2-propanol. Cell viability was determined by measuring the absorbance of the reduced formazan, giving a purple color, at 540 nm and 690 nm. The absorbance measured at 690 nm was automatically subtracted from the absorbance at 540 nm, to eliminate the effects of non-specific absorption. The percent cytotoxicity achieved by the compounds was calculated according to standard methods. Cytotoxicity is reported as CC50, the concentration that causes a 50% reduction in cell viability.
The results are depicted in the table D2 below (TOX HELAM).

S. aureus = experiment: Antibacterial susceptibility testing, IC90 with 10% human serum (STA + 10% HS 361.169); type: cell-based, Staphylococcus aureus; details: S. aureus with 10% human serum
Procedure: (§1) The following bacteria were used: Staphylococcus aureus ATCC 29213, methicillin-resistant Staphylococcus aureus (MRSA) ATCC 700788 and Escherichia coli ATCC 35218. The bacteria used in this study were grown overnight in flasks containing 100 ml Mueller-Hinton broth (Difco cat. nr. 0757-17) in sterile de-ionized water, with shaking, at 37° C. Stocks were store at −70° C. until use.
(§2) Bacteria were incubated on a tryptic soy agar plate containing 5% sheep blood (Becton Dickinson cat. nr. 254053) for 18-24 hours at 35° C. in aerobic conditions (first passage). For the second passage, fresh Mueller-Hinton broth is inoculated with 5-10 colonies and grown overnight at 35° C. until turbidity (reaching log-phase) in aerobic conditions is reached. The bacterial suspension is then adjusted to 0.5 McFarland density and further diluted 1:100 in Mueller Hinton broth medium. This is used as inoculum.
(§3) MIC assays were performed by the broth microdilution method in a 96-well format (flat-bottom microtitre plates) with a final volume of 0.1 ml Mueller Hinton broth containing two-fold serial dilutions of compounds and inoculated with 5×10^5 CFU/ml of bacteria (standard inoculum size according to CLSI guidelines). Inhibitors are typically varied over the range of 63 to 0.49 μM. The final DMSO concentration in the assay was 1.25% (maximum tolerable DMSO concentration=6%). In the assays where the effect of human serum on the activity of the compounds against S. aureus was tested, human serum was added at a final concentration of 10%. The plates were incubated at 35° C. for 16-20 hours. At the end of incubation the bacterial growth was quantified fluorometrically. For this, resazurin was added to all wells and the plates were re-incubated. The incubation time is dependent on the type of bacteria. A change in color from blue to pink indicated the growth of bacteria. The fluorescence was read in computer-controlled fluorometer (Fluoroskan Ascent FL, Labsystems) at an excitation wavelength 540 nm and an emission wavelength of 590 nm. The % growth inhibition achieved by the compounds was calculated according to standard methods. The IC90 (expressed in μg/ml) was defined as the 90% inhibitory concentration for bacterial growth. A panel of reference compounds were simultaneously tested for QC approval.
The results are depicted in the table D2 below (STA+10% HS).

[2] = test system: Staphylococcus aureus ATCC 29213; experiment: Antibacterial susceptibility testing, IC90 determination (STA 361.159); type: cell-based; details: STA ATCC 29213; 90% inhibitory concentration for bacterial growth
Procedure: D.2 In Vitro Method for Testing Compounds for Antibacterial Activity Against Various Bacterial Strains Preparation of Bacterial Suspensions for Susceptibility Testing
as §1, §2
Antibacterial Susceptibility Testing: IC90 Determination
as §3

SMILES: COc1ccccc1C1=CCCN(C(=O)/C=C/c2cnc3c(c2)CCC(=O)N3)C1 [compound 21]
- FabI IC50 [1]: 0.80 µg/mL

SMILES: COc1cccc(C2=CCN(C(=O)/C=C/c3cnc4c(c3)CCC(=O)N4)CC2)c1 [compound 22]
- TOX HELAM (222.125) CC50 (Human HelaM cells): >9.783 µg/mL
- FabI IC50 [1]: 0.93 µg/mL
- STA + 10% HS (361.169) IC90 (S. aureus): >24.5733 µg/mL
- STA (361.159) IC90 [2]: 21.16 µg/mL

SMILES: Cc1ccc(-c2ccccc2)n1CC1CCN(C(=O)/C=C/c2cnc3c(c2)CCC(=O)N3)CC1 [compound 42]
- FabI IC50 [1]: 10.18 µg/mL

SMILES: O=C1CCc2cc(/C=C/C(=O)N3CC=C(c4cc5ccccc5o4)CC3)cnc2N1 [compound 17]
- FabI IC50 [1]: 1.91 µg/mL

SMILES: O=C1CCc2cc(/C=C/C(=O)N3CC=C(c4ccc5c(c4)OCO5)CC3)cnc2N1 [compound 8]
- FabI IC50 [1]: 0.53 µg/mL

SMILES: COc1ccc(C2=CCN(C(=O)/C=C/c3cnc4c(c3)CCC(=O)N4)CC2)cc1 [compound 23]
- FabI IC50 [1]: 0.85 µg/mL

SMILES: COc1ccncc1C1=CCN(C(=O)/C=C/c2cnc3c(c2)CCC(=O)N3)CC1 [compound 20]
- TOX HELAM (222.125) CC50 (Human HelaM cells): >9.808 µg/mL
- FabI IC50 [1]: 0.78 µg/mL
- STA + 10% HS (361.169) IC90 (S. aureus): 16.85 µg/mL
- STA (361.159) IC90 [2]: 13.23 µg/mL

SMILES: O=C1CCc2cc(/C=C/C(=O)N3CC=C(c4ccccc4Cl)CC3)cnc2N1 [compound 16]
- TOX HELAM (222.125) CC50 (Human HelaM cells): 8.04 µg/mL
- FabI IC50 [1]: 0.58 µg/mL
- STA + 10% HS (361.169) IC90 (S. aureus): 8.52 µg/mL
- STA (361.159) IC90 [2]: 3.31 µg/mL

SMILES: O=C1CCc2cc(/C=C/C(=O)N3CCC(Cc4ccccc4)CC3)cnc2N1 [compound 12]
- TOX HELAM (222.125) CC50 (Human HelaM cells): >9.431 µg/mL
- FabI IC50 [1]: 0.31 µg/mL
- STA + 10% HS (361.169) IC90 (S. aureus): 2.09 µg/mL
- STA (361.159) IC90 [2]: 1.19 µg/mL

SMILES: O=C1CCc2cc(/C=C/C(=O)N3CCc4ccccc4C3)cnc2N1 [compound 3]
- TOX HELAM (222.125) CC50 (Human HelaM cells): >8.374 µg/mL
- FabI IC50 [1]: 0.48 µg/mL
- STA + 10% HS (361.169) IC90 (S. aureus): 10.79 µg/mL
- STA (361.159) IC90 [2]: 8.67 µg/mL

SMILES: O=C1CCc2cc(/C=C/C(=O)N3CCC(Cn4cncn4)CC3)cnc2N1 [compound 40]
- FabI IC50 [1]: 1.43 µg/mL

SMILES: O=C1CCc2cc(/C=C/C(=O)N3CCN(Cc4ccccc4)CC3)cnc2N1 [compound 24]
- FabI IC50 [1]: 7.17 µg/mL

SMILES: O=C1CCc2cc(/C=C/C(=O)N3CCC(CC4CCCS4)CC3)cnc2N1 (centres unmarked) [compound 36]
- TOX HELAM (222.125) CC50 (Human HelaM cells): >9.684 µg/mL
- FabI IC50 [1]: 0.61 µg/mL
- STA + 10% HS (361.169) IC90 (S. aureus): 11.38 µg/mL
- STA (361.159) IC90 [2]: 8.43 µg/mL

SMILES: O=C1CCc2cc(/C=C/C(=O)N3CCC(Cn4cnnc4)CC3)cnc2N1 [compound 38]
- FabI IC50 [1]: >7.31 µg/mL

SMILES: O=C1CCc2cc(/C=C/C(=O)N3CCCC(Oc4ccccc4)C3)cnc2N1 (centres unmarked) [compound 1]
- FabI IC50 [1]: 3.52 µg/mL

SMILES: O=C1CCc2cc(/C=C/C(=O)N3CC=C(c4ccccc4)CC3)cnc2N1 [compound 7]
- TOX HELAM (222.125) CC50 (Human HelaM cells): >9.028 µg/mL
- FabI IC50 [1]: 0.41 µg/mL
- STA + 10% HS (361.169) IC90 (S. aureus): 2.54 µg/mL
- STA (361.159) IC90 [2]: 2.07 µg/mL

SMILES: COc1ccccc1C1CCN(C(=O)/C=C/c2cnc3c(c2)CCC(=O)N3)CC1 [compound 13]
- FabI IC50 [1]: 0.53 µg/mL

SMILES: O=C1CCc2cc(/C=C/C(=O)N3CC=C(c4cccc(C(F)(F)F)c4)CC3)cnc2N1 [compound 19]
- FabI IC50 [1]: 1.12 µg/mL

SMILES: O=C1CCc2cc(/C=C/C(=O)N3CCC(C(=O)c4ccccc4)CC3)cnc2N1 [compound 6]
- FabI IC50 [1]: 1.74 µg/mL

SMILES: COc1ccccc1CC1=CCN(C(=O)/C=C/c2cnc3c(c2)CCC(=O)N3)CC1 [compound 14]
- TOX HELAM (222.125) CC50 (Human HelaM cells): >10.1352 µg/mL
- FabI IC50 [1]: 1.06 µg/mL
- STA + 10% HS (361.169) IC90 (S. aureus): 13.06 µg/mL
- STA (361.159) IC90 [2]: 6.93 µg/mL

SMILES: O=C1CCc2cc(/C=C/C(=O)N3CCC(Cc4coc5cc(F)ccc45)CC3)cnc2N1 [compound 31]
- FabI IC50 [1]: 0.79 µg/mL

SMILES: CC1CN(C(=O)/C=C/c2cnc3c(c2)CCC(=O)N3)CC=C1c1ccccc1 (centres unmarked) [compound 27]
- TOX HELAM (222.125) CC50 (Human HelaM cells): >9.381 µg/mL
- FabI IC50 [1]: 0.57 µg/mL
- STA + 10% HS (361.169) IC90 (S. aureus): 21.99 µg/mL
- STA (361.159) IC90 [2]: 6.13 µg/mL

SMILES: O=C1CCc2cc(/C=C/C(=O)N3CCC(c4cccc(O)c4)CC3)cnc2N1 [compound 5]
- TOX HELAM (222.125) CC50 (Human HelaM cells): >9.481 µg/mL
- FabI IC50 [1]: 0.35 µg/mL
- STA + 10% HS (361.169) IC90 (S. aureus): 11.14 µg/mL
- STA (361.159) IC90 [2]: 10.52 µg/mL

SMILES: O=C1CCc2cc(/C=C/C(=O)N3CCC(Cc4ccc5ccccc5n4)CC3)cnc2N1 [compound 41]
- FabI IC50 [1]: 3.39 µg/mL

SMILES: O=C1CCc2cc(/C=C/C(=O)N3CCC(CCOc4ccc(F)cc4)CC3)cnc2N1 [compound 30]
- FabI IC50 [1]: 1.34 µg/mL

SMILES: O=C1CCc2cc(/C=C/C(=O)N3CC=CCC3)cnc2N1 [compound 15]
- FabI IC50 [1]: 3.57 µg/mL

SMILES: O=C1CCc2cc(/C=C/C(=O)N3CCC(Cc4ccccn4)CC3)cnc2N1 [compound 35]
- TOX HELAM (222.125) CC50 (Human HelaM cells): >9.456 µg/mL
- FabI IC50 [1]: 0.48 µg/mL
- STA + 10% HS (361.169) IC90 (S. aureus): 3.94 µg/mL
- STA (361.159) IC90 [2]: 5.14 µg/mL

SMILES: O=C1CCc2cc(/C=C/C(=O)N3CCN(c4ccccc4)CC3)cnc2N1 [compound 25]
- FabI IC50 [1]: 1.48 µg/mL

SMILES: O=C1CCc2cc(/C=C/C(=O)N3CC=C(c4cccnc4)CC3)cnc2N1 [compound 18]
- FabI IC50 [1]: 0.67 µg/mL

SMILES: O=C1CCc2cc(/C=C/C(=O)N3CCC(Oc4ccccc4)CC3)cnc2N1 [compound 28]
- FabI IC50 [1]: 0.93 µg/mL

SMILES: O=C1CCc2cc(/C=C/C(=O)N3CCC(CCOc4ccccc4)CC3)cnc2N1 [compound 29]
- FabI IC50 [1]: 1.00 µg/mL

SMILES: O=C1CCc2cc(/C=C/C(=O)N3CCCCC3)cnc2N1 [compound 26]
- FabI IC50 [1]: 2.73 µg/mL

SMILES: O=C1CCc2cc(/C=C/C(=O)N3CCC(Cn4ccc5ccccc54)CC3)cnc2N1 [compound 39]
- FabI IC50 [1]: 2.74 µg/mL

SMILES: O=C1CCc2cc(/C=C/C(=O)N3CCC(Cc4nc5ccccc5s4)CC3)cnc2N1 [compound 32]
- FabI IC50 [1]: 1.72 µg/mL

SMILES: O=C1CCc2cc(/C=C/C(=O)N3CCC(O)(c4ccc(Cl)cc4)CC3)cnc2N1 [compound 11]
- FabI IC50 [1]: 0.80 µg/mL
